Measurements reported in patent US20100266716A1, “Natural Photodynamic Agents and their use” (priority 2007, published 2010).

Legend:
Format in all cases: cell-based
[1] = test system: Staphylococcus aureus; experiment: MBEC device biofilm photodynamic killing (Example 1); design: key to Killing of Staph aureus biofilm (eradication or growth): “−” = biofilm eradication at the mentioned conditions (concentration, exposure time and Light source); “+” = biofilm growth; conditions: 16 Hours exposure
Source text: (§1) Test microorganisms included Salmonella choleraesuis, Staphylococcus aureus, foodborne pathogens of humans. Test Compounds included Methylene blue, Hemoglobin (blood product), Hemin (blood product), Protoporphyrin (blood product), Annatto Extract (15% Norbixin), beet juice, Canthaxanthin (10%), Beta-carotene (1%), Purple carmine 50%, Carmine lake 60%, Black Carrot extract, Tomato lycopene (5%), sodium copper chlorophyllin, grape skin extract, paprika oleoresin, riboflavin, saffron, titanium dioxide, FD&C blue No1., turmeric oleoresin, FD&C blue No. 2, FD&C Green No. 3, FD&C Red No. 2 (Amaranth), FD&C Red No. 40, FD&C Yellow No. 5, and FD&C Yellow No. 6. Compounds were prepared as 1%, 0.1%, 0.01%, by weight, dissolved in water.
(§2) The light source was a full spectrum fluorescent light or LED light and the contact time was 1 and 16 hours. The study temperature was 37° C.
(§3) Approximately 10^6 organisms in 150 uL Cation Adjusted Mueller Hinton Broth (CAMHB) were placed in each of the wells of a 96 peg MBEC device. The lid of the 96 peg MBEC device was placed on the bottom plate containing organism. The device was placed on a shaker, set to 110 rpm, and incubated at 37° C. for 24 hours to produce biofilms.
(§4) The challenge plates were set up using a sterile 96-well microtitre plate using aseptic techniques in the following manner (one organism per plate, per light exposure time, per light source). Test solutions (200 uL) were placed into each well. The lid was transferred to the challenge plate and exposed to the various light sources for the prescribed exposure times (16 hours). Following the treatment, the pegs were transferred to the recovery media (“recovery plate”) then wrapped in tin foil and incubated at 37° C. for 18 to 24 hours. The recovery plate(s) was wrapped in tin foil, incubated at 37° C. for 24 hours and read visually and by a plate reader, set to an optical density measurement of 630 nm, to determine Minimum Biofilm Eradication Concentration (MBEC) by looking at growth or no growth.

[2] = test system: Salmonella choleraesuis; experiment: Photocatalytic food dyes Log10 counts (Example 2); conditions: S. choleraesuis, Control 7.28
Source text: as §1, §2, §3, §4
(§5) The test was conducted as shown in Example 1, but using Hemin (blood product), Protoporphyrin (blood product), Annatto Extract, and Turmeric. The group of tests organism also included E. Coli 0157H7.

[3] = test system: Staphylococcus aureus; experiment: Photocatalytic food dyes Log10 counts (Example 2); conditions: Staph. aureus
Source text: as §1, §2, §3, §4, §5

[4] = test system: E. coli 0157H7; experiment: Photocatalytic food dyes Log10 counts (Example 2)
Source text: as §1, §2, §3, §4, §5

[5] = test system: Salmonella choleraesuis; experiment: MBEC device biofilm photodynamic killing (Example 1); design: key to Killing of Salmonella cholerasuis biofilm (eradication or growth): “−” = biofilm eradication at the mentioned conditions (concentration, exposure time and Light source); “+” = biofilm growth; conditions: for Killing of Salmonella cholerasuis biofilm (eradication or growth): 16 Hours exposure
Source text: as §1, §2, §3, §4

[6] = test system: Pseudomonas syringae HB9; experiment: Photodynamic activity on plant bacterial pathogen (Example 4)
Procedure: Test microorganism included Pseudomonas syringae, a food spoilage microorganism and plant pathogen. Test Compounds included Hemin (blood product), Annatto Extract, and Turmeric. Compounds were prepared as 1%, 0.1%, 0.01%, by weight, in 30% Mueller Hinton Broth in phosphate buffered saline. The light source was a broad spectrum fluorescent light or an LED light and the contact time was 16 hours. The study temperature was 28° C.
Approximately 10^6 organisms in 150 uL Cationic
Adjusted Mueller Hinton Broth were placed in each of the wells of a 96 peg MBEC device. The lid of the 96 peg MBEC device was placed on the bottom plate containing organism. The device was placed on a shaker, set to 110 rpm, and incubated at 28° C. for 24 hours.
The challenge plates were set up using a sterile 96-well microtitre plate using aseptic techniques in the following manner (one organism per plate, per light exposure time, per light source). Test solutions (200 uL) were placed into each well. The lid was transferred to the challenge plate and exposed to the various light sources for the prescribed exposure times (16 hours). Following the treatment, the pegs were transferred to the recovery media (“recovery plate”) then wrapped in tin foil and incubated at 28° C. for 18 to 24 hours.
The recovery plate(s) was wrapped in tin foil, incubated at 28° C. for 24 hours and read visually and by a plate reader, set to an optical density measurement of 630 nm, to determine MBEC growth.

[7] = Fluorescent Light 16 hours, 0.01%
[8] = Fluorescent Light 16 hours, 0.1%

## Hemin
[1]; Fluorescent Light, 0.01%
  Killing of Staph aureus biofilm (eradication or growth): +
[1]; Fluorescent Light, 0.1%
  Killing of Staph aureus biofilm (eradication or growth): +
[1]; Fluorescent Light, 1%
  Killing of Staph aureus biofilm (eradication or growth): +
[1]; LED Light, 0.01%
  Killing of Staph aureus biofilm (eradication or growth): +
[1]; LED Light, 0.1%
  Killing of Staph aureus biofilm (eradication or growth): +
[1]; LED Light, 1%
  Killing of Staph aureus biofilm (eradication or growth): +
[2]; [7]
  Average Log10 counts: 2.79 Log10
[2]; [8]
  Average Log10 counts: 3.85 Log10
[2]; Fluorescent Light 16 hours, 1%
  Average Log10 counts: 4.55 Log10
[2]; LED Light 16 hours, 0.01%
  Average Log10 counts: 4.02 Log10
[2]; LED Light 16 hours, 0.1%
  Average Log10 counts: 4.48 Log10
[2]; LED Light 16 hours, 1%
  Average Log10 counts: 4.74 Log10
[3]; Fluorescent Light 16 hours, 0.01%, Control 6.48
  Average Log10 counts: 2.21 Log10
[3]; Fluorescent Light 16 hours, 0.1%, Control 6.48
  Average Log10 counts: 0.79 Log10
[3]; Fluorescent Light 16 hours, 1%, Control 6.48
  Average Log10 counts: 0.00 Log10
[3]; LED Light 16 hours, 0.01%, Control 6.95
  Average Log10 counts: 5.52 Log10
[3]; LED Light 16 hours, 0.1%, Control 6.95
  Average Log10 counts: 3.75 Log10
[3]; LED Light 16 hours, 1%, Control 6.95
  Average Log10 counts: 1.51 Log10
[4]; Fluorescent Light 16 hours, 0.01%, Control 6.51
  Average Log10 counts: 3.17 Log10
[4]; Fluorescent Light 16 hours, 0.1%, Control 6.51
  Average Log10 counts: 3.79 Log10
[4]; Fluorescent Light 16 hours, 1%, Control 6.51
  Average Log10 counts: 3.06 Log10
[4]; LED Light 16 hours, 0.01%, Control 6.36
  Average Log10 counts: 4.18 Log10
[4]; LED Light 16 hours, 0.1%, Control 6.36
  Average Log10 counts: 4.22 Log10
[4]; LED Light 16 hours, 1%, Control 6.36
  Average Log10 counts: 0.00 Log10
[5]; Fluorescent Light, 0.01%
  Killing of Salmonella cholerasuis biofilm (eradication or growth): −
[5]; Fluorescent Light, 0.1%
  Killing of Salmonella cholerasuis biofilm (eradication or growth): −
[5]; Fluorescent Light, 1%
  Killing of Salmonella cholerasuis biofilm (eradication or growth): −
[5]; LED Light, 0.01%
  Killing of Salmonella cholerasuis biofilm (eradication or growth): +
[5]; LED Light, 0.1%
  Killing of Salmonella cholerasuis biofilm (eradication or growth): +
[5]; LED Light, 1%
  Killing of Salmonella cholerasuis biofilm (eradication or growth): −
[5]; Salmonella choleraesuis and Staphylococcus aureus biofilm, summary of Table 1
  effective as photodynamic agent in killing biofilm organisms: Effective
[6]; [7]
  Average Log10 growth reductions: 1.07 log10 CFU
[6]; [8]
  Average Log10 growth reductions: 0.92 log10 CFU
[6]; Fluorescent Light 16 hours, 1%
  Average Log10 growth reductions: 1.51 log10 CFU
[6]; LED Light 16 hours, 0.01%
  Average Log10 growth reductions: 1.48 log10 CFU
[6]; LED Light 16 hours, 0.1%
  Average Log10 growth reductions: 1.32 log10 CFU
[6]; LED Light 16 hours, 1%
  Average Log10 growth reductions: 3.97 log10 CFU
